Laboratory results taken from paper PMC11448502, “Cryo-EM structures of the human P2X1 receptor reveal subtype-specific architecture and antagonism by supramolecular ligand-binding” (Nature Communications, 2024).

B1: full-length wild-type human P2X1 receptor (receptor, UniProt P51575 1-399, looked up)
chain: MARRFQEELAAFLFEYDTPRMVLVRNKKVGVIFRLIQLVVLVYVIGWVFLYEKGYQTSSGLISSVSVKLKGLAVTQLPGLGPQVWDVADYVFPAQGDNSFVVMTNFIVTPKQTQGYCAEHPEGGICKEDSGCTPGKAKRKAQGIRTGKCVAFNDTVKTCEIFGWCPVEVDDDIPRPALLREAENFTLFIKNSISFPRFKVNRRNLVEEVNAAHMKTCLFHKTLHPLCPVFQLGYVVQESGQNFSTLAEKGGVVGITIDWHCDLDWHVRHCRPIYEFHGLYEEKNLSPGFNFRFARHFVENGTNYRHLFKVFGIRFDILVDGKAGKFDIIPTMTTIGSGIGIFGVATVLCDLLLLHILPKRHYYKQKKFKYAEDMGPGAAERDLAATSSTLGLQENMRTS
modifications: N-linked glycosylation (N-acetylglucosamine modelled in the extracellular domain, e.g. at N184)
notes: human P2X1 receptor (P2X purinoceptor 1), full-length wild type, no mutations or truncations; Cytoplasmic N- and C-terminal residues are not visible in the maps; also called hP2X1; hP2X1-WT; source: HEK293 GNTI- cells, BacMam baculovirus transduction; solubilised in DDM/CHS, purified (TALON resin, HRV 3C protease digestion, SEC on Superdex 200 increase)

What was measured:
[1] = system: P2X1; conditions: reviewer comment, no reference given; cited from earlier work
[2] = target: the molecule itself; assay: cryo-EM structure; single particle cryo-EM of purified hP2X1 in C12M (DDM)/CHS, 20 mM HEPES pH 7.0, 100 mM NaCl, 5 mg/mL; three states: apo closed, ATP-bound desensitized (endogenous ATP), NF449-bound inhibited (400 uM NF449)

Molecule | potency for P2X1 relative to P2X3 [1] | stoichiometry N [2]
Nc1ncnc2c1ncn2[C@@H]1O[C@H](COP(=O)(O)CP(=O)(O)OP(=O)(O)O)[C@@H](O)[C@H]1O [α, β-MeATP] | 10 times | –
B1 | – | 3
